In this assay the target is T1, β-catenin (Homo sapiens, UniProt P35222).
T1 sequence (P35222 1-781): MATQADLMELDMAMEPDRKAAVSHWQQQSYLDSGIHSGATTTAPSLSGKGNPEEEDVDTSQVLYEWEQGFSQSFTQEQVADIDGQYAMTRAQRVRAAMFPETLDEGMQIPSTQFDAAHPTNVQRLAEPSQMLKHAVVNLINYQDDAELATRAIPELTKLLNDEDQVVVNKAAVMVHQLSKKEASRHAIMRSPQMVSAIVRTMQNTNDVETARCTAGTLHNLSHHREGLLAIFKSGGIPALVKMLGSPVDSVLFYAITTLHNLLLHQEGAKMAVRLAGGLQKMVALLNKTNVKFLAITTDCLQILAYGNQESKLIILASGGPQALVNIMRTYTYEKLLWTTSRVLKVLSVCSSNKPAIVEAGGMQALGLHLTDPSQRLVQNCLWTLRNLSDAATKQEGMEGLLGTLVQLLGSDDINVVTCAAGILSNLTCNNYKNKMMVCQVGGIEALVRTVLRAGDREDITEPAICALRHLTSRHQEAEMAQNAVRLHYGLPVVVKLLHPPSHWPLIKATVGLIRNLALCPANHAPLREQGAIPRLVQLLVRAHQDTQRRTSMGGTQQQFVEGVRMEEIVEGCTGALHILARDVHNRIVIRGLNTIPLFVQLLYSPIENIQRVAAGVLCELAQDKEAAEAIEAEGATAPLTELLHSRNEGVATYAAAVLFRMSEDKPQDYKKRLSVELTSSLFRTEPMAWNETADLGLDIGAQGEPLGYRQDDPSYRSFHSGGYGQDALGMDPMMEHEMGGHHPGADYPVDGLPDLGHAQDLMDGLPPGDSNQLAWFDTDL
The assay can be described thus: KD50 measurement using competitive fluorescence polarization (FP) with labelled TCF4. The class given is binding. As to conditions: fluorescence polarization, β-catenin; for Kd: read-out: β-Cat FP KD. Put shortly:
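Labelled TCF4 (5 nM) mixed with 100 nM β-catenin at room temperature; inhibitor added as serial dilutions from 10 nM to 30 uM. Polarization read at excitation 470 nm/emission 520 nm; binding displacement lowers polarization. Three independent runs.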

SMILES strings stand for the structures. Where a SMILES comes first, the peptide text is derived from it. Bounds are passed on as bounds.

For orientation: Kd means a measure of binding affinity in units of concentration. For `CC[C@H](C)[C@@H]1NC(=O)[C@@H](NC(=O)[C@H](CCC(N)=O)NC(=O)[C@@H]2CCCN2C(=O)[C@H](Cc2c[nH]c3ccccc23)NC(=O)[C@H](CCCNC(=N)N)NC(=O)[C@H](CCCNC(=N)N)NC(C)=O)CCCCNC(=O)CC[C@@H](C(=O)N[C@@H](Cc2c[nH]cn2)C(=O)N[C@H](C(=O)N[C@@H](CCCNC(=N)N)C(=O)N[C@@H](CCCNC(=N)N)C(=O)N[C@H](C(=O)N[C@@H](Cc2c[nH]c3ccccc23)C(=O)N[C@@H](CCCNC(=N)N)C(N)=O)C(C)C)C(C)C)NC(=O)[C@H](CC(=O)O)NC(=O)[C@H](CC(C)C)NC1=O` [compound 429] (HELM PEPTIDE1{[ac].R.R.W.P.Q.K.I.L.D.E.H.V.R.R.V.W.R.[am]}$PEPTIDE1,PEPTIDE1,7:R3-11:R3$$$V2.0), the “β-Cat FP Hill slope” value was determined as 0.7 and the Kd lay within 400 to 1000 nM.
`CCCCCCCCC(=O)N[C@@H](Cc1c[nH]c2ccccc12)C(=O)N(C)[C@@H](C)C(=O)N[C@@H](CCC(N)=O)C(=O)N[C@H]1CCCCNC(=O)C[C@@H](C(=O)N[C@@H](Cc2c[nH]cn2)C(=O)N[C@H](C(=O)N[C@@H](CCC(N)=O)C(=O)N[C@@H](CCCNC(=N)N)C(=O)N[C@H](C(=O)N[C@@H](Cc2c[nH]c3ccccc23)C(=O)NCC(N)=O)C(C)C)C2CCCCC2)NC(=O)[C@H](CC(=O)O)NC(=O)[C@H](CC(C)C)NC(=O)[C@H]([C@@H](C)CC)NC1=O` [compound 431] (HELM PEPTIDE1{[CCCCCCCCC(=O)[*:2]].W.[meA].Q.K.I.L.D.D.H.[O=C([C@@H](N[*:1])C1CCCCC1)[*:2]].Q.R.V.W.G.[am]}$PEPTIDE1,PEPTIDE1,5:R3-9:R3$$$V2.0): the Kd is below 400 nM.
Consider `CC[C@H](C)[C@@H]1NC(=O)[C@@H](NC(=O)[C@H](CCC(N)=O)NC(=O)[C@H](C)N(C)C(C)=O)CCCCNC(=O)CC[C@@H](C(=O)N[C@@H](Cc2c[nH]cn2)C(=O)N[C@H](C(=O)N[C@@H](CCC(N)=O)C(=O)N[C@@H](CCCNC(=N)N)C(=O)N[C@H](C(=O)N[C@@H](Cc2c[nH]c3ccccc23)C(=O)NCC(N)=O)C(C)C)C2CCCCC2)NC(=O)[C@H](CC(N)=O)NC(=O)[C@H](CC(C)C)NC1=O` [compound 433] (HELM PEPTIDE1{[ac].[meA].Q.K.I.L.N.E.H.[O=C([C@@H](N[*:1])C1CCCCC1)[*:2]].Q.R.V.W.G.[am]}$PEPTIDE1,PEPTIDE1,4:R3-8:R3$$$V2.0), for which the “β-Cat FP Hill slope” value came to 0.7 and the Kd is 400 to 1000 nM.
With `CCCCCCCCCCCC(=O)N(C)[C@@H](C)C(=O)N[C@@H](CCC(N)=O)C(=O)N[C@H]1CCCCNC(=O)CC[C@@H](C(=O)N[C@@H](Cc2c[nH]cn2)C(=O)N[C@H](C(=O)N[C@@H](CCC(N)=O)C(=O)N[C@@H](CCCNC(=N)N)C(=O)N[C@H](C(=O)N[C@@H](Cc2c[nH]c3ccccc23)C(=O)NCC(N)=O)C(C)C)C2CCCCC2)NC(=O)[C@H](CC(N)=O)NC(=O)[C@H](CC(C)C)NC(=O)[C@H]([C@@H](C)CC)NC1=O` [compound 434] (HELM PEPTIDE1{[CCCCCCCCCCCC(=O)[*:2]].[meA].Q.K.I.L.N.E.H.[O=C([C@@H](N[*:1])C1CCCCC1)[*:2]].Q.R.V.W.G.[am]}$PEPTIDE1,PEPTIDE1,4:R3-8:R3$$$V2.0), the Kd was below 400 nM.
The same measure, in the same setting: with `CCCCCCCCCCCC(=O)N[C@@H](Cc1c[nH]c2ccccc12)C(=O)N(C)[C@@H](C)C(=O)N[C@@H](CCC(N)=O)C(=O)N[C@H]1CCCCNC(=O)CC[C@@H](C(=O)N[C@@H](Cc2c[nH]cn2)C(=O)N[C@H](C(=O)N[C@@H](CCC(N)=O)C(=O)N[C@@H](CCCNC(=N)N)C(=O)N[C@H](C(=O)N[C@@H](Cc2c[nH]c3ccccc23)C(=O)NCC(N)=O)C(C)C)C2CCCCC2)NC(=O)[C@H](CC(N)=O)NC(=O)[C@H](CC(C)C)NC(=O)[C@H]([C@@H](C)CC)NC1=O` [compound 436] (HELM PEPTIDE1{[CCCCCCCCCCCC(=O)[*:2]].W.[meA].Q.K.I.L.N.E.H.[O=C([C@@H](N[*:1])C1CCCCC1)[*:2]].Q.R.V.W.G.[am]}$PEPTIDE1,PEPTIDE1,5:R3-9:R3$$$V2.0) the figure was above 30000 nM.
Consider `CC[C@H](C)[C@H](NC(=O)[C@H](CO)NC(=O)[C@H](CCC(N)=O)NC(=O)[C@H](C)N(C)C(=O)[C@H](Cc1c[nH]c2ccccc12)NC(C)=O)C(=O)N[C@@H](CC(C)C)C(=O)N[C@@H](CC(=O)O)C(=O)N[C@H]1CCC(=O)NCCCC[C@@H](C(=O)N[C@H](C(=O)N[C@@H](Cc2c[nH]c3ccccc23)C(=O)NCC(N)=O)C(C)C)NC(=O)[C@H](CCC(N)=O)NC(=O)[C@H](C(C)C)NC(=O)[C@H](Cc2c[nH]cn2)NC1=O` [compound 437] (HELM PEPTIDE1{[ac].W.[meA].Q.S.I.L.D.E.H.V.Q.K.V.W.G.[am]}$PEPTIDE1,PEPTIDE1,9:R3-13:R3$$$V2.0), for which the “β-Cat FP Hill slope” value is 0.7 and the Kd is below 400 nM.
Take `CCCCCCCCC(=O)N[C@@H](Cc1c[nH]c2ccccc12)C(=O)N(C)[C@@H](C)C(=O)N[C@@H](CCC(N)=O)C(=O)N[C@@H](CO)C(=O)N[C@H](C(=O)N[C@@H](CC(C)C)C(=O)N[C@@H](CC(=O)O)C(=O)N[C@H]1CCC(=O)NCCCC[C@@H](C(=O)N[C@H](C(=O)N[C@@H](Cc2c[nH]c3ccccc23)C(=O)NCC(N)=O)C(C)C)NC(=O)[C@H](CCC(N)=O)NC(=O)[C@H](C(C)C)NC(=O)[C@H](Cc2c[nH]cn2)NC1=O)[C@@H](C)CC` [compound 438] (HELM PEPTIDE1{[CCCCCCCCC(=O)[*:2]].W.[meA].Q.S.I.L.D.E.H.V.Q.K.V.W.G.[am]}$PEPTIDE1,PEPTIDE1,9:R3-13:R3$$$V2.0): the Kd was below 400 nM.
For `CCCCCCCCCCCC(=O)N[C@@H](Cc1c[nH]c2ccccc12)C(=O)N(C)[C@@H](C)C(=O)N[C@@H](CCC(N)=O)C(=O)N[C@@H](CO)C(=O)N[C@H](C(=O)N[C@@H](CC(C)C)C(=O)N[C@@H](CC(=O)O)C(=O)N[C@H]1CCC(=O)NCCCC[C@@H](C(=O)N[C@H](C(=O)N[C@@H](Cc2c[nH]c3ccccc23)C(=O)NCC(N)=O)C(C)C)NC(=O)[C@H](CCC(N)=O)NC(=O)[C@H](C(C)C)NC(=O)[C@H](Cc2c[nH]cn2)NC1=O)[C@@H](C)CC` [compound 439] (HELM PEPTIDE1{[CCCCCCCCCCCC(=O)[*:2]].W.[meA].Q.S.I.L.D.E.H.V.Q.K.V.W.G.[am]}$PEPTIDE1,PEPTIDE1,9:R3-13:R3$$$V2.0), the Kd is below 400 nM.
Consider `CCCCCCCCCCCC(=O)N[C@@H](CCC(=O)O)C(=O)N[C@@H](CC(=O)O)C(=O)N1CCC[C@H]1C(=O)N[C@@H](CCC(N)=O)C(=O)N[C@H]1CCCCNC(=O)CC[C@@H](C(=O)N[C@@H](Cc2c[nH]cn2)C(=O)N[C@@H](CC(C)C)C(=O)N[C@@H](CCC(N)=O)C(=O)N[C@@H](CCCNC(=N)N)C(=O)N[C@H](C(=O)N[C@@H](CC(C)C)C(=O)N[C@@H](CCCCN)C(N)=O)C(C)C)NC(=O)[C@H](CC(=O)O)NC(=O)[C@H](CC(C)C)NC(=O)[C@H]([C@@H](C)CC)NC1=O` [compound 444] (HELM PEPTIDE1{[CCCCCCCCCCCC(=O)[*:2]].E.D.P.Q.K.I.L.D.E.H.L.Q.R.V.L.K.[am]}$PEPTIDE1,PEPTIDE1,6:R3-10:R3$$$V2.0), for which the Kd was below 400 nM.

The values are drawn from US12441768B2, “Compositions and methods for treating endometriosis” (EndoMet Biosciences, Inc., priority 2018, dated 2025).
